Measured values from publication PMC9586938, “Picomolar fluorescent probes for compound affinity determination to carbonic anhydrase IX expressed in live cancer cells” (Scientific Reports, 2022).
“And” between values parts separate entries of the source, which are not always exact repeats. Identical values can stand only once. Like-named read-outs stand apart in the source and are kept apart here.

Experiments:
CAI = target: T1, CAI (Homo sapiens, UniProt P00915); test: Thermal shift assay (TSA), recombinant CAI; assay type: binding; conditions: 37 °C, pH 7.0, observed (not intrinsic)
T1 construct: made in house; host or cells: E. coli
T1 sequence (P00915 whole entry): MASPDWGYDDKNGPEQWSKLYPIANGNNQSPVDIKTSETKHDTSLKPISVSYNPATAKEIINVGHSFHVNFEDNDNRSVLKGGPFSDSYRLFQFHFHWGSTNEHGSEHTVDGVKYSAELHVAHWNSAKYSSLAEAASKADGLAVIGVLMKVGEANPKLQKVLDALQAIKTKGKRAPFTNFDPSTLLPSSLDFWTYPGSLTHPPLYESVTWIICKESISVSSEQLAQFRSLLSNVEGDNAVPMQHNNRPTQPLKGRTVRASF

CAII = target: T2, CAII (Homo sapiens, UniProt P00918); test: Thermal shift assay (TSA), recombinant CAII; assay type: binding; conditions: 37 °C, pH 7.0, observed (not intrinsic)
T2 construct: made in house; host or cells: E. coli
Procedure: (§1) The binding affinities of all fluorescein-containing compounds were determined for all 12 catalytically active CA isozymes by the thermal shift assay (TSA). […] However, the SFA technique cannot determine the affinities lower than the enzyme concentration used in the assay. […] In addition, we used isothermal titration calorimetry (ITC), the standard assay to determine affinity and enthalpy of protein–ligand binding. […] Therefore, ITC was used only to determine the enthalpy of interaction and confirm the ordering of compound affinities.
(§2) All twelve catalytically active human CA isozymes were prepared recombinantly as previously described. Isozymes CAIX, CAXII, and CAXIV were the catalytic domains of the proteins[14],[38]. All isozymes were expressed in E. coli except CAIX that has been prepared in mammalian cells. The proteins were chromatographically purified on ion-exchange or benzene sulfonamide containing affinity columns. Protein MW was confirmed by mass spectrometry with 1 Da precision as predicted from gene sequence.
(§3) Compound affinities for the twelve catalytically active CA isozymes were determined by the thermal shift assay as previously described[30],[39]. Protein solutions containing 1,8-anilinonaphthalenesulfonate fluorescent probe were heated from 25 to 100 °C at a rate of one degree per minute while following the fluorescence of the probe. The temperature scanning curves provided the melting temperature Tm of the protein. The Tm has a distinct dependence on the concentration of a compound. Stronger binders shift the Tm to a greater extent than the weak binders. The Tm dependencies on compound concentration were fit to obtain the affinity Kd[40].

CAIII = target: T3, CAIII (Homo sapiens, UniProt P07451); test: Thermal shift assay (TSA), recombinant CAIII; assay type: binding; conditions: 37 °C, pH 7.0, observed (not intrinsic)
T3 construct: made in house; host or cells: E. coli
T3 sequence (P07451 whole entry): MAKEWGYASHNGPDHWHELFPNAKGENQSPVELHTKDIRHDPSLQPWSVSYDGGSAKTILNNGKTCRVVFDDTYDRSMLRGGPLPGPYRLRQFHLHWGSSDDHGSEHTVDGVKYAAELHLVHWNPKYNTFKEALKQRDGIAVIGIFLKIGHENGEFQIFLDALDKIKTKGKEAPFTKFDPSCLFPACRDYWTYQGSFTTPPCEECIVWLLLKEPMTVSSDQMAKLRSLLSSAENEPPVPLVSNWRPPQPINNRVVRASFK
Procedure: as §1, §2, §3

CAIV = target: T4, CAIV (Homo sapiens, UniProt P22748); test: Thermal shift assay (TSA), recombinant CAIV; assay type: binding; conditions: 37 °C, pH 7.0, observed (not intrinsic)
T4 construct: made in house; host or cells: E. coli
T4 sequence (P22748 19-312): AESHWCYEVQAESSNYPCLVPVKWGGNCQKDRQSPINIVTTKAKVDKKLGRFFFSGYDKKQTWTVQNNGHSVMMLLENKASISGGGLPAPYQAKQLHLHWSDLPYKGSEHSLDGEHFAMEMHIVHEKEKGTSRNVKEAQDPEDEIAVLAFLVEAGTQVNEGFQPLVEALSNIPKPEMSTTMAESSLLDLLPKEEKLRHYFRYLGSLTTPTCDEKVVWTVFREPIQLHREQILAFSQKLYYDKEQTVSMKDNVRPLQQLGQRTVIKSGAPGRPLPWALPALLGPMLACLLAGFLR

CAVA = target: T5, CAVA (Homo sapiens, UniProt P35218); test: Thermal shift assay (TSA), recombinant CAVA; assay type: binding; conditions: 37 °C, pH 7.0, observed (not intrinsic)
T5 construct: made in house; host or cells: E. coli
T5 sequence (P35218 39-305): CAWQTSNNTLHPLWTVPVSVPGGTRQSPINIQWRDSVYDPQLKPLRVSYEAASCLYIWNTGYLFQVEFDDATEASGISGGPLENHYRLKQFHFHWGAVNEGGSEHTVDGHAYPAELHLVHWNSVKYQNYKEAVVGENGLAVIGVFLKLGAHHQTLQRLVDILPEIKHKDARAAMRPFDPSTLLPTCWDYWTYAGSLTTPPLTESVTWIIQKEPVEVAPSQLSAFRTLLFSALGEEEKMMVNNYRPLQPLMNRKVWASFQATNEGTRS
Procedure: as §1, §2, §3

CAVB = target: T6, CAVB (Homo sapiens, UniProt Q9Y2D0); test: Thermal shift assay (TSA), recombinant CAVB; assay type: binding; conditions: 37 °C, pH 7.0, observed (not intrinsic)
T6 construct: made in house; host or cells: E. coli
T6 sequence (Q9Y2D0 34-317): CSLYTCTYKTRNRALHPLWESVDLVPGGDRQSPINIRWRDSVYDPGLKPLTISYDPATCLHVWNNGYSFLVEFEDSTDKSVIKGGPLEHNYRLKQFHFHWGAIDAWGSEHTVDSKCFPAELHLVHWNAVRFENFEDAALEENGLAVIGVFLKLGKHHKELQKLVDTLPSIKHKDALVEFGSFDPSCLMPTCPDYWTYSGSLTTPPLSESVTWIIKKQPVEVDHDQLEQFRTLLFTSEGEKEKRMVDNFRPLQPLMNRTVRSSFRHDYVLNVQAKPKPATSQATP

CAVI = target: T7, CAVI (Homo sapiens, UniProt P23280); test: Thermal shift assay (TSA), recombinant CAVI; assay type: binding; conditions: 37 °C, pH 7.0, observed (not intrinsic)
T7 construct: made in house; host or cells: E. coli
T7 sequence (P23280 18-308): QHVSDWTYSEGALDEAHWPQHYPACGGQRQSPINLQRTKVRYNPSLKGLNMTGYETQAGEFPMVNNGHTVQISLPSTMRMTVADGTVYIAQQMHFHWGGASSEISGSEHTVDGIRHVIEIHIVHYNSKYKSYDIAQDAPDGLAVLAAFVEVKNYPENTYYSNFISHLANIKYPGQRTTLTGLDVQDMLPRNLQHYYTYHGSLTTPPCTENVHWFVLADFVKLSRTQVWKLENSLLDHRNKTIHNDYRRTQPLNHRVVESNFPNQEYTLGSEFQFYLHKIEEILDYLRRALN
Procedure: as §1, §2, §3

CAVII = target: T8, CAVII (Homo sapiens, UniProt P43166); test: Thermal shift assay (TSA), recombinant CAVII; assay type: binding; conditions: 37 °C, pH 7.0, observed (not intrinsic)
T8 construct: made in house; host or cells: E. coli
T8 sequence (P43166 whole entry): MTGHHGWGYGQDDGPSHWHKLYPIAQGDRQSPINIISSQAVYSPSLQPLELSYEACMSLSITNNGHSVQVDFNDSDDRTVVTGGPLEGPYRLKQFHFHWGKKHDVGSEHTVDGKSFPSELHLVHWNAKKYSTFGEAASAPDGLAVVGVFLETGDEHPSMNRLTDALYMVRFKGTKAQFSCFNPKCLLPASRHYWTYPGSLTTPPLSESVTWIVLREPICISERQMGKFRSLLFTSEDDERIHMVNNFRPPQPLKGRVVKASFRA

[1] = target: T9, catalytic domain of recombinant human CAIX (Homo sapiens, UniProt Q16790); test: Thermal shift assay (TSA), recombinant CAIX catalytic domain; assay type: binding
T9 construct: Isozymes CAIX, CAXII, and CAXIV were the catalytic domains of the proteins; made in house; host or cells: mammalian cells

CAXII = target: T10, CAXII (Homo sapiens, UniProt O43570); test: Thermal shift assay (TSA), recombinant CAXII; assay type: binding; conditions: 37 °C, pH 7.0, observed (not intrinsic)
T10 construct: Isozymes CAIX, CAXII, and CAXIV were the catalytic domains of the proteins; made in house; host or cells: E. coli
T10 sequence (O43570 30-289 limits assumed): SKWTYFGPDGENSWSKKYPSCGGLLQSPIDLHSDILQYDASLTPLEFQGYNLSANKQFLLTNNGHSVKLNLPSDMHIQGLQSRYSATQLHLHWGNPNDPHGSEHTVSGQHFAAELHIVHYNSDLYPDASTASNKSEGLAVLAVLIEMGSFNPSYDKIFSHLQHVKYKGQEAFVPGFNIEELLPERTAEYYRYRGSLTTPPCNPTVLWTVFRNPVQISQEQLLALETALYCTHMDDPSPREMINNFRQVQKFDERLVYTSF
Procedure: as §1, §2, §3

CAXIII = target: T11, CAXIII (Homo sapiens, UniProt Q8N1Q1); test: Thermal shift assay (TSA), recombinant CAXIII; assay type: binding; conditions: 37 °C, pH 7.0, observed (not intrinsic)
T11 construct: made in house; host or cells: E. coli
T11 sequence (Q8N1Q1 whole entry): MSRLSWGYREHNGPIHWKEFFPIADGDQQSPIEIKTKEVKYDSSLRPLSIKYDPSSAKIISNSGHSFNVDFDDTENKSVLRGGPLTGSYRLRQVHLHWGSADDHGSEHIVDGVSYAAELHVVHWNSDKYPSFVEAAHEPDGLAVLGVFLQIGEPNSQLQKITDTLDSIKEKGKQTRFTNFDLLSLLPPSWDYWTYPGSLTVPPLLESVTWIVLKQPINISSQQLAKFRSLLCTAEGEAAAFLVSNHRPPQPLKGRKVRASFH

CAXIV = target: T12, CAXIV (Homo sapiens, UniProt Q9ULX7); test: Thermal shift assay (TSA), recombinant CAXIV; assay type: binding; conditions: 37 °C, pH 7.0, observed (not intrinsic)
T12 construct: Isozymes CAIX, CAXII, and CAXIV were the catalytic domains of the proteins; made in house; host or cells: E. coli
T12 sequence (Q9ULX7 20-278 limits assumed): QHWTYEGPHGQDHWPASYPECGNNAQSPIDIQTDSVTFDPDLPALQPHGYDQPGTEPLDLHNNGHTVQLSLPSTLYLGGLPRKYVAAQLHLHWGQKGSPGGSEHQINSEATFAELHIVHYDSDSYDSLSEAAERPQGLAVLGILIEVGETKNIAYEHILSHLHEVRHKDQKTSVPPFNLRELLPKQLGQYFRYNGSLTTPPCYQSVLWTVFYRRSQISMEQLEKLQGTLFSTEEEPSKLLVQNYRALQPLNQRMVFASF

[2] = system: CA activity in hypoxic HeLa WT cells; test: CA activity by gas-analysis mass spectrometry in live hypoxic HeLa WT cells; assay type: cell-based, human; conditions: Fig. 7A
Procedure: (§4) Catalytic activity of CA in hypoxic human cervical adenocarcinoma (HeLa) cells was determined by monitoring the ^18O depletion of doubly labeled ^13C^18O2 through several hydration and dehydration steps with a quadrupole mass spectrometer (OmniStar GSD 320; Pfeiffer Vacuum, Asslar, Germany) as previously described[16],[51]. HeLa cells were cultured in Dulbecco’s Modified Eagle’s Medium–high glucose (D5671; Sigma Aldrich, Schnelldorf, Germany), supplemented with 10% fetal calf serum and 1% penicillin / streptomycin. The cell line was cultured under hypoxia (1% O2) for three days prior to measurements. Cells were detached from the plate with Accumax Cell Detachment Solution (ACM-1F; Capricorn Scientific, Ebsdorfergrund, Germany), washed and resuspended in HEPES-buffered saline (143 mM NaCl, 5 mM KCl, 2 mM CaCl2, 1 mM MgSO4, 1 mM Na2HPO4, 10 mM HEPES, pH 7.2). Approximately 3 × 10^6 cells, dissolved in 5 mL of HEPES-buffered saline (pH 7.2, RT), were used for every single measurement. […] For every measurement, the non-catalyzed reaction was determined for 12 min in the presence of inhibitor, before cell suspension was added to the measuring cuvette and the catalyzed reaction was determined for 12 min. […] IC50 values were determined by Hill1 fit using OriginPro 8.6 (OriginLab Corporation). CA enzymatic activity in units (U) was calculated as defined by Badger and Price[52]. […]

[3] = system: CA activity in hypoxic HeLa CAIX-KO cells; test: CA activity by gas-analysis mass spectrometry in live hypoxic HeLa CAIX-KO cells; assay type: cell-based, human
Procedure: as §4

hypoxic HeLa cells = test: XTT cell viability assay; assay type: cell-based, human; conditions: up to 1 µM, 3 h
Procedure: Potential cytotoxic effects on HeLa cells were determined by XTT assay. The XTT was carried out as previously described by Scudiero et al.[53]. HeLa cells were cultured under hypoxia (1% O2) for three days prior to measurements. Cells were detached from the plate with Accumax Cell Detachment Solution (ACM-1F; Capricorn Scientific, Ebsdorfergrund, Germany), washed and resuspended in HEPES-buffered saline (143 mM NaCl, 5 mM KCl, 2 mM CaCl2, 1 mM MgSO4, 1 mM Na2HPO4, 10 mM HEPES, pH 7.2). For each measurement, 100,000 cells were incubated with 1 nM or 1 µM of GZ18-23 for 3 h prior to adding the XTT (No. 38450, SERVA Electrophoresis GmbH, Heidelberg, Germany) / electron coupling reagent (PMS; No. 32030, SERVA). XTT-specific absorbance was measured at 492 nm using a microplate reader (Tecan Infinite F200; Tecan Trading AG, Männedorf, Switzerland). Background absorption was measured at 690 nm. Cells, which were not incubated in GZ18-23, were used as control (100%).

[4] = target: T13, CAIX expressed on live HeLa cells (Homo sapiens, UniProt Q16790); test: Competition of unlabeled compound with 10 nM GZ19-32 on hypoxic HeLa cells (competitive binding model); assay type: cell-based
T13 construct: recombinant CAIX and endogenous CAIX expressed on the cell surface; endogenous in cells; host or cells: HeLa (WT), grown under hypoxia (1% O2)

[5] = target: CAIX expressed on live A549 cells (Homo sapiens, UniProt Q16790); test: Competition of unlabeled compound with 10 nM GZ19-32 on hypoxic A549 cells (competitive binding model)

With `NS(=O)(=O)c1c(F)c(F)c(S(=O)(=O)CCC(=O)O)c(NC2CCCCCCC2)c1F` [GZ18-23, 3-((2-(cyclooctylamino)-3,5,6-trifluoro-4-sulfamoylphenyl)sulfonyl)propanoic acid] the Kd (CAI) was 5 µM, the Kd (CAII) was 160 nM and the Kd (CAIII) was greater than 200 µM. It also gave a Kd (CAIV) of 120 nM, a Kd (CAVA) of 12.5 µM and a Kd (CAVB) of 160 nM. For the same molecule, the Kd (CAVI) was 140 nM, the Kd (CAVII) was 43 nM and the Kd ([1]; TSA, 37 °C, pH 7.0, observed (not intrinsic), read-out: Kd CAIX) was 0.033 nM. For the same molecule, the “selectivity for CAIX over CAVII” value ([1]; ratio of Kd) was 1000 ×, the “selectivity for CAIX over CAXII” value ([1]; ratio of Kd) was 30 fold and the “selectivity for CAIX over CAXIII” value ([1]; ratio of Kd) was 300 ×. The “selectivity for CAIX over CAXIV” value ([1]; ratio of Kd) was 100 fold, the “selectivity for CAIX over the remaining CA isozymes” value ([1]; ratio of Kd) was “more than 3000 ×” and the Kd ([1]; recombinant CAIX, read-out: Kd for CAIX) was 0.03 nM. For the same molecule, the Kd ([1]; recombinantly purified CAIX, read-out: Kd for purified CAIX by TSA) was 0.033 nM, the Kd (CAXII) was 1 nM and 1.4 nM and the Kd (CAXIII) was 10 nM. For the same molecule, the Kd (CAXIV) was 3.3 nM, the IC50 ([2]; Homo sapiens, hypoxic HeLa cells, gas-analysis MS, read-out: k, inhibition of CA activity (Hill fit)) was 0.92 nM and the “overall CA activity remaining uninhibited” value ([2]; hypoxic HeLa WT cells) was “approximately 20%”. For the same molecule, the “effect on CA activity” value [3] was “no effect”, the “viability of hypoxic HeLa cells” value (hypoxic HeLa cells) was “did not affect the viability” and the “dosing midpoint of competition curve” value ([4]; 10 nM GZ19-32, Fig. 12) was “around 10 nM”. For the same molecule, the Kd ([4]; HeLa cells grown under hypoxia, mixture with 10 nM GZ19-32, 20 min incubation, read-out: KdA, nM (competitive binding model)) was 0.3 nM, the “difference between affinity for CAIX on cells and purified CAIX” value ([4]; lower affinity on cells) was 3 to 10 factor and the melting point was 143 to 144 °C. It also gave a Kd [5] of 0.22 nM.
